Literature values, collected in patent publication US7666658B1, “Antibody catalysis of enantio- and diastereo-selective aldol reactions” (The Scripps Research Institute, priority 1999, dated 2010).

Conditions: retro-aldolization of fructose-1,6-bisphosphate, reported at 4° C.

In the case of “muscle aldolase: nature's muscle aldolase, natural enzyme cleaving fructose-1,6-bisphosphate”, the efficiency is given as 4.9×10^4 s^−1M^−1.
